Counter-ions that a name gives are not always drawn.

The test system of series [1] is phencyclidine induced prolonged finding latency. Kind of series: Water finding task in mice after neonatal treatment with phencyclidine. It is filed as in vivo, male ddY mice. The conditions noted are these: mouse; for phencyclidine induced prolonged finding latency improving action (in words): oral administration; for Minimum effective dose (mg/kg p.o.) (Example 4): smallest oral dose giving significantly short finding latency vs solvent group, as free form. As to the method:
Verification of the therapeutic effect on schizophrenia was carried out using a water finding task in mice after neonatal treatment with phencyclidine. […] In addition, it has been reported that chronic treatment of PCP prolonged finding latency in the water-finding task (Mouri et al., 2007, Mol. Pharmacol., 180:152-60, herein incorporated by reference). Finding latency in the water-finding task provides a measure of latent learning in animals, which is thought to reflect attention. Attention is one of the most important domain of cognitive impairments in schizophrenia, we could evaluate the efficacy of drugs for cognitive impairments in schizophrenia using this task. Briefly, male ddY mice subcutaneously received PCP at a dose of 15 mg/kg or saline on postnatal day 7, 9 and 11. During the adult 7 weeks old, test compounds were orally administered to animals and 60 minutes later, the animals were placed in one corner of the open field and allowed to freely explore the training apparatus for 3 min. Immediately after the training trial, the animals were returned to their home cage and deprived of water until the test trial the next day. In the test trial, the mice were again placed individually in the test apparatus. The time between entering the alcove and drinking the water was measured. […] The solvent used was a 0.5% aqueous solution of methylcellulose. The statistical analysis was carried out between the solvent administered group and the drug administered groups, using Dunnett's test.

For another series, the target named is T1, BEC1 potassium channel (Homo sapiens, UniProt Q9ULD8).
T1 construct: expressed in transfected cells
T1 sequence (Q9ULD8 1-1083): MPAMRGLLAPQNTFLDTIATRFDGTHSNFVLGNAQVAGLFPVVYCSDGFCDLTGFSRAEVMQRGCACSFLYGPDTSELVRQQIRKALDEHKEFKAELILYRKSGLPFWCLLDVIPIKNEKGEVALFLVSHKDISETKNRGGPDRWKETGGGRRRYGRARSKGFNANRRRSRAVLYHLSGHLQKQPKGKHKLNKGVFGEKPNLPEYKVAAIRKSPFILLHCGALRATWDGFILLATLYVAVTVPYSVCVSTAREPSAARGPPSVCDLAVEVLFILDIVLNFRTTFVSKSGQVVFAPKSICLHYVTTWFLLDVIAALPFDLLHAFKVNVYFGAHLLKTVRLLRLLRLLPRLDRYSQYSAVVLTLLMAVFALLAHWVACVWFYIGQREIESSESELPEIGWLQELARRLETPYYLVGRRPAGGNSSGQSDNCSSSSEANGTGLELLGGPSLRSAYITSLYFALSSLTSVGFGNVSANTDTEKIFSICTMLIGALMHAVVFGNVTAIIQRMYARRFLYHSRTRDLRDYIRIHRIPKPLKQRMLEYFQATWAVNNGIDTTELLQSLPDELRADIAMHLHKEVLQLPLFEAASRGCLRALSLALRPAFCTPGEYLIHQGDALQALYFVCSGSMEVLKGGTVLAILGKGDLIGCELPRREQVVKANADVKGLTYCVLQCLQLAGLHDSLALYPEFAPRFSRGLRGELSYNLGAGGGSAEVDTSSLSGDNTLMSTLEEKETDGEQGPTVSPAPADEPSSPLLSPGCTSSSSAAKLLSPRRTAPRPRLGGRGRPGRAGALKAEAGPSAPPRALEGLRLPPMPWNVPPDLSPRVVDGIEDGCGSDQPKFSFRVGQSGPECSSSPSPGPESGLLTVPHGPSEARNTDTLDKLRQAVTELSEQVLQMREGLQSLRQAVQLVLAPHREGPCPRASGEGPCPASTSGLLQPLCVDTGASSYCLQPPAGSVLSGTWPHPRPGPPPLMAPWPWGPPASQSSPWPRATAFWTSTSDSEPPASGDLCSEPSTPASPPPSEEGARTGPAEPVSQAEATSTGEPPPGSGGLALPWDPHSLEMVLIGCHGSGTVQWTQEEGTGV
Kind of series: BEC1 inhibitory activity, 86Rb ion release from BEC1 expressing cells. It is filed as cell-based. The note with it: BEC1 stably expressing CHO (dhfr-deficient) cells, 100 mM KCl stimulation, 86Rb release; as free form; read-out: IC50 (μM) (Example 1). On the procedure: Method for measuring BEC1 inhibitory activity of compound utilizing 86Rb ion release amount as index
The channel activity of BEC1 was measured according to the method described in U.S. Pat. No. 6,326,168 or U.S. Pat. No. 7,375,222, herein incorporated by reference, utilizing the release of the ions of radioactive isotope 86Rb from BEC1 expressing cells as an index. Specifically, when BEC1 expressing cells which had taken in 86Rb ions were stimulated with 100 mM KCl, the radioactivity released from the same cells was designated as the channel activity of BEC1. 86Rb ions were incorporated into cells by culturing (3 hours, 37° C.) BEC1 stably expressing cells in the presence of 86RbCl (0.5 μCi/ml), and the unincorporated 86Rb ions were removed by washing the cells three times with HEPES buffered physiological saline (pH 7.4, 2.5 mM KCl). The same cells were incubated for 15 minutes at room temperature in the presence of a DMSO solution containing the test compound and HEPES buffered physiological saline, and then were further incubated for 5 minutes at room temperature in the presence of a 100 mM KCl-containing HEPES buffer solution (pH 7.4) containing the same compound. The extracellular fluid was recovered, and then the remaining cells were lysed in 0.1 N NaOH and recovered. The Cherenkov radioactivities of the extracellular fluid and the cell lysate were respectively measured, and the sum was designated as the total radioactivity. The release amount of 86Rb ions was expressed as the percentage of the radioactivity of the extracellular fluid with respect to the total radiation activity. The value obtained in the presence of the compound was designated as a test value, the value obtained in the absence of the compound was designated as a control value, and the value obtained when the cells were not stimulated with 100 mM KCl was designated as a blank value. […] In addition, as for the BEC1 expressing cells, BEC1 stably expressing cells produced according to the method described in U.S. Pat. No. 6,326,168 or U.S. Pat. No. 7,375,222, herein incorporated by reference, using a dihydrofolate reductase (dhfr)-deficient strain of Chinese Hamster ovary cells, were used.

In series [2] the test system is phencyclidine induced prolonged immobility. Kind of series: Phencyclidine induced prolonged immobility model (forced swimming test). The class given is in vivo, male ddY mouse. The conditions noted are these: mouse; for phencyclidine induced prolonged immobility improving action (in words): oral administration; for Minimum effective dose (mg/kg p.o.) (Example 3): smallest oral dose giving significantly short immobility time vs solvent group, 1 h after administration, as free form. As to the method:
Verification of the therapeutic effect on schizophrenia was carried out using a phencyclidine induced prolonged immobility model. Phencyclidine is a non-competitive antagonist of the N-methyl-D-aspartate receptor, a type of glutamate receptor, and abuse of this agent causes development of psychotic symptoms indistinguishable from those of schizophrenia. […] Forced swimming test is used as a screening assay for antidepressants, because immobility in this test is thought to reflect some aspect of depression such as lowering of motivation. Negative symptoms of schizophrenia also includes similar aspects, we could evaluate the efficacy of drugs for negative symptoms, such as apathy, using this test. Briefly, a male ddY mouse was gently placed in a cylindrical pool, and activity was measured for 3 min with SCANET (MV20-LAN, MELQUEST). Afterward immobility time was calculated with the SCANET file integrating software. Two days later, Mice were anesthetized with sodium pentobarbital. The Osmotic mini pumps (Alzet model 1002, DURECT Corporation) were subcutaneously implanted to mice. The pump infused saline or phencyclidine 1.2 mg/day/mouse with pumping rate of 0.25 μL/hour. Fourteen days after implantation, a test compound was administered to mice and an hour after administration, each mouse was gently placed in a cylindrical pool, and activity was measured for 3 min. Afterward immobility time was calculated. […] The solvent used was a 0.5% aqueous solution of methylcellulose. The statistical analysis was carried out between the solvent administered group and the drug administered groups, using Dunnett's test.

Series [3] concerns methamphetamine induced hyperlocomotion. Kind of series: Methamphetamine induced hyperlocomotion model. It is filed as in vivo, male ddY mouse. The conditions noted are these: smallest oral dose giving significantly small activity vs solvent group; mouse; as free form. On the procedure: Verification of the therapeutic effect on schizophrenia was carried out using a methamphetamine induced hyperlocomotion model. Methamphetamine is a psychostimulant, and is known to cause symptoms that are similar to schizophrenia by increasing the transmission in the dopaminergic neurons. The abnormal behavior produced when methamphetamine is administered to an animal is generally used as a screening method for a therapeutic drug for schizophrenia (Oka et al., 1993, J. Pharmacol. Exp. Ther., 264:158-165, herein incorporated by reference). That is, a male ddY mouse was placed in an activity monitoring apparatus, and after 30 minutes, methamphetamine was administered. After administering methamphetamine, the mouse was immediately returned to the monitoring apparatus, and the activity for one hour from immediately after the return was measured. For the measurement of the activity, a Supermex sensor manufactured by Muromachi Kikai Co., Ltd. was used. […] The solvent used was a 0.5% aqueous solution of methylcellulose. The statistical analysis was carried out between the solvent administered group and the drug administered groups, using Dunnett's test.
The test compounds (1) to (5) all suppressed methamphetamine induced hyperlocomotion.

On to `Fc1ccc(Nc2nc(NCc3ncccn3)nc(Nc3ccc(F)cc3)n2)cc1` (as salt: HCl) [Compound 2a, N,N′-bis(4-fluorophenyl)-N″-(pyrimidin-2-ylmethyl)-1,3,5-triazine-2,4,6-triamine], for which the melting point – broadly, the temperature of the solid-liquid transition – lay in the range of 183 to 186 °C.
With `Fc1ccc(Nc2nc(NCc3ncccn3)nc(Nc3ccccc3)n2)cc1` [Compound 1, N-(4-fluorophenyl)-N′-phenyl-N″-(pyrimidin-2-ylmethyl)-1,3,5-triazine-2,4,6-triamine], in series [1], the “phencyclidine induced prolonged finding latency improving action (in words)” value is reported as “suppressed phencyclidine induced prolongation of finding latency” and the “Minimum effective dose (mg/kg p.o.) (Example 4)” value was 0.03 mg/kg p.o. In addition, the IC50 (in general, the point on the concentration scale where inhibition reaches its midpoint) at BEC1 potassium channel is 0.077 µM. Moreover, in series [2], the “phencyclidine induced prolonged immobility improving action (in words)” value is “suppressed phencyclidine induced prolongation of immobility time” and the “Minimum effective dose (mg/kg p.o.) (Example 3)” value was determined as 0.03 mg/kg p.o. In series [3], the “Minimum effective dose (mg/kg p.o.) (Example 2)” value was 0.1 mg/kg p.o.
As to `Fc1ccc(Nc2nc(NCc3ncccn3)nc(Nc3ccc(F)cc3)n2)cc1` [Compound 2a, N,N′-bis(4-fluorophenyl)-N″-(pyrimidin-2-ylmethyl)-1,3,5-triazine-2,4,6-triamine], the IC50 on BEC1 potassium channel amounted to 0.065 µM. The “Minimum effective dose (mg/kg p.o.) (Example 2)” value in series [3] was found to be 0.03 mg/kg p.o.
With `Fc1ccc(Nc2nc(NCc3ncccn3)nc(Nc3ccc(F)cc3)n2)cc1` [Compound 2b, N,N′-bis(4-fluorophenyl)-N″-(pyrimidin-2-ylmethyl)-1,3,5-triazine-2,4,6-triamine], in series [1], the “phencyclidine induced prolonged finding latency improving action (in words)” value was “suppressed phencyclidine induced prolongation of finding latency” and the “Minimum effective dose (mg/kg p.o.) (Example 4)” value is reported as 0.01 mg/kg p.o. In addition, in series [2], the “phencyclidine induced prolonged immobility improving action (in words)” value is reported as “suppressed phencyclidine induced prolongation of immobility time” and the “Minimum effective dose (mg/kg p.o.) (Example 3)” value was found to be 0.01 mg/kg p.o.
As to `COc1ccc(Nc2nc(NCc3ncccn3)nc(Nc3ccc(F)cc3)n2)cc1` [Compound 3, N-(4-fluorophenyl)-N′-(4-methoxyphenyl)-N″-(pyrimidin-2-ylmethyl)-1,3,5-triazine-2,4,6-triamine], the IC50 at BEC1 potassium channel is 0.092 µM. The “Minimum effective dose (mg/kg p.o.) (Example 2)” value in series [3] stood at 0.03 mg/kg p.o.
Take `Fc1ccc(Nc2nc(NCc3ccncn3)nc(Nc3ccc(F)cc3)n2)cc1` [Compound 4, N,N′-bis(4-fluorophenyl)-N″-(pyrimidin-4-ylmethyl)-1,3,5-triazine-2,4,6-triamine]: on BEC1 potassium channel, the IC50 amounted to 0.058 µM. In addition, the “Minimum effective dose (mg/kg p.o.) (Example 2)” value in series [3] came out at 0.01 mg/kg p.o.
Take `Cl.Fc1ccc(Nc2nc(NCc3ccnc(F)c3)nc(Nc3ccccc3)n2)cc1` [Compound 5, N-(4-fluorophenyl)-N′-[(2-fluoro-4-pyridyl)methyl]-N″-phenyl-1,3,5-triazine-2,4,6-triamine hydrochloride]: in series [3], the “Minimum effective dose (mg/kg p.o.) (Example 2)” value came out at 1.0 mg/kg p.o.
Regarding `Cc1ccc(Nc2nc(NCc3ccnc(F)c3)nc(Nc3ccc(F)cc3)n2)cc1` [Compound 7, N-(4-fluorophenyl)-N′-[(2-fluoro-4-pyridyl)methyl]-N″-(4-methylphenyl)-1,3,5-triazine-2,4,6-triamine hydrochloride], at BEC1 potassium channel, the concentration for half-maximal inhibition (IC50) worked out at 0.24 µM.
Same read-out and setting: in the case of `COc1ccc(Nc2nc(NCc3ccnc(F)c3)nc(Nc3ccc(F)cc3)n2)cc1` [Compound 8, N-(4-fluorophenyl)-N′-[(2-fluoro-4-pyridyl)methyl]-N″-(4-methoxyphenyl)-1,3,5-triazine-2,4,6-triamine hydrochloride] it was 0.17 µM.
On to `COc1cccc(Nc2nc(NCc3ccnc(F)c3)nc(Nc3ccc(F)cc3)n2)c1` [Compound 10, N-(4-fluorophenyl)-N′-[(2-fluoro-4-pyridyl)methyl]-N″-(3-methoxyphenyl)-1,3,5-triazine-2,4,6-triamine hydrochloride], for which, at BEC1 potassium channel, the IC50 is 0.25 µM.
